Test results from patent publication US20240294572A1, “Antimicrobial Peptides” (priority 2021, published 2024).
≈ marks a conversion by molar mass, not a printed value. Non-standard residues stand in square brackets, D forms with d. Residues, ends and D or L forms follow the SMILES beside them. *: point of attachment. Decanoyl = CCCCCCCCCC(=O)*

How the values were obtained:
Format in all cases: cell-based
[1] = test system: S. aureus USA300 transposon mutant SAUSA300_0647 (vraF)
Protocol: (§1) The antimicrobial susceptibility of over 20 MRSA transposon mutants were also tested, based on a transposon library screening, in the presence of LL-37 peptides (Golla, et al. (2020) ACS Infect. Dis., 6:1866-1881). This Nebraska Transposon Mutant Library of S. aureus USA300 consists of 1920 mutants, each with one nonessential gene disabled due to a transposon insertion (Fey, et al. (2013) mBio 4:e00537-12). The correct insertion of the transposon to each Staph mutant had been verified (Golla, et al. (2020) ACS Infect. Dis., 6:1866-1881). Antimicrobial susceptibility to the new peptide C10-KR8d was evaluated in the same manner as MIC assays. Susceptible strains could be inhibited at a peptide concentration lower than the MIC against the wild strain S. aureus JE2.

[2] = test system: S. aureus USA300 transposon mutant SAUSA300_1228 (thrB)
Protocol: as §1

[3] = test system: S. aureus USA300 transposon mutant SAUSA300_1515
Protocol: as §1

[4] = test system: S. aureus USA300 transposon mutant SAUSA300_1036
Protocol: as §1

[5] = test system: S. aureus USA300 transposon mutant SAUSA300_1962
Protocol: as §1

[6] = test system: S. aureus JE2 (SAUSA300, wild type); conditions: JE2 (SA, wild type)
Protocol: as §1

[7] = test system: S. aureus USA300 transposon mutant SAUSA300_1097 (pyrF); test: Antimicrobial susceptibility of transposon mutant; set-up: key: No = no MIC changes of C10-KR8d against the WT and the mutant S. aureus strains measured in 50% TSB; conditions: mutant SAUSA300_1097 pyrF versus WT
Protocol: as §1

[8] = test system: S. aureus USA300 transposon mutant SAUSA300_0186 (argC); test: Antimicrobial susceptibility of transposon mutant; set-up: key: No = no MIC changes of C10-KR8d against the WT and the mutant S. aureus strains measured in 50% TSB; conditions: mutant SAUSA300_0186 argC versus WT
Protocol: as §1

[9] = test system: S. aureus USA300 transposon mutant SAUSA300_0394; test: Antimicrobial susceptibility of transposon mutant; set-up: key: No = no MIC changes of C10-KR8d against the WT and the mutant S. aureus strains measured in 50% TSB; conditions: mutant SAUSA300_0394 versus WT
Protocol: as §1

[10] = test system: S. aureus USA300 transposon mutant SAUSA300_1898; test: Antimicrobial susceptibility of transposon mutant; set-up: key: No = no MIC changes of C10-KR8d against the WT and the mutant S. aureus strains measured in 50% TSB; conditions: mutant SAUSA300_1898 versus WT
Protocol: as §1

[11] = test system: S. aureus USA300 transposon mutant SAUSA300_1967; test: Antimicrobial susceptibility of transposon mutant; set-up: key: No = no MIC changes of C10-KR8d against the WT and the mutant S. aureus strains measured in 50% TSB; conditions: mutant SAUSA300_1967 versus WT
Protocol: as §1

[12] = test system: S. aureus USA300 transposon mutant SAUSA300_0829 (lipA); test: Antimicrobial susceptibility of transposon mutant; set-up: key: No = no MIC changes of C10-KR8d against the WT and the mutant S. aureus strains measured in 50% TSB; conditions: mutant SAUSA300_0829 lipA versus WT
Protocol: as §1

[13] = test system: S. aureus USA300 transposon mutant SAUSA300_1503; test: Antimicrobial susceptibility of transposon mutant; set-up: key: No = no MIC changes of C10-KR8d against the WT and the mutant S. aureus strains measured in 50% TSB; conditions: mutant SAUSA300_1503 versus WT
Protocol: as §1

[14] = test system: S. aureus USA300 transposon mutant SAUSA300_1465; test: Antimicrobial susceptibility of transposon mutant; set-up: key: No = no MIC changes of C10-KR8d against the WT and the mutant S. aureus strains measured in 50% TSB; conditions: mutant SAUSA300_1465 versus WT
Protocol: as §1

Structure (SMILES): CCCCCCCCCC(=O)N[C@H](CCCCN)C(=O)N[C@H](CCCNC(=N)N)C(=O)N[C@@H](C(=O)N[C@H](Cc1c[nH]c2ccccc12)C(=O)N[C@H](CCC(N)=O)C(=O)N[C@H](CCCNC(=N)N)C(=O)N[C@@H](C(=O)N[C@H](CCCCN)C(N)=O)[C@H](C)CC)[C@H](C)CC [Peptide C10-KR8d] (Decanoyl-[dK][dR][dI][dW][dQ][dR][dI][dK]-NH2)
- Susceptible? ([1]; mutant SAUSA300_0647 vraF versus WT): Yes
- MIC ([1]; mutant SAUSA300_0647 vraF, 50% TSB): 1.6 to 3.1 µM
- Susceptible? ([2]; mutant SAUSA300_1228 thrB versus WT): Yes
- MIC ([2]; mutant SAUSA300_1228 thrB, 50% TSB): 1.6 to 3.1 µM
- MIC ([3]; mutant SAUSA300_1515, 50% TSB): 1.6 to 3.1 µM
- Susceptible? ([3]; mutant SAUSA300_1515 versus WT): Yes
- MIC ([4]; mutant SAUSA300_1036, 50% TSB): 1.6 to 3.1 µM
- Susceptible? ([4]; mutant SAUSA300_1036 versus WT): Yes
- MIC ([5]; mutant SAUSA300_1962, 50% TSB): 1.6 to 3.1 µM
- Susceptible? ([5]; mutant SAUSA300_1962 versus WT): Yes
- MIC [6]: 3.1 µM (≈ 3.97 µg/mL)
- Susceptible? [7]: No
- Susceptible? [8]: No
- Susceptible? [9]: No
- Susceptible? [10]: No
- Susceptible? [11]: No
- Susceptible? [12]: No
- Susceptible? [13]: No
- Susceptible? [14]: No
